Legend:
[1] = target: T1, CDK4 (Homo sapiens, UniProt P11802); assay: Western blot degradation of CDK4 (MDA-MB-231 Cell); type: cell-based; settings: Table D3
T1 construct: evaluate the effects of the compounds of the present disclosure on the expression of target proteins in cells; endogenous in cells; host or cells: MDA-MB-231
Experimental: (§1) Conventional Western blot assay was performed to evaluate the effects of the compounds of the present disclosure on the expression of target proteins in cells.
(§2) (1) Cell Seeding and Protein Harvesting: The selected cells were processed according to the cell seeding procedure and protein harvesting procedure in Table III-2. Table III-2 Cell Seeding and Protein Harvesting Procedures
(§3) (2) To the collected supernatant, 5X SDS sample loading buffer was added, followed by denaturation at 95°C for 5 minutes. The denatured samples were then separated by SDS-PAGE electrophoresis on a polyacrylamide gel. Proteins were transferred to a nitrocellulose membrane (0.45 µm NC membrane), blocked with blocking buffer at room temperature for 1 hour, and subjected to antibody incubation and development procedures according to the antibody manufacturer's instructions (Cell Signaling Technology).
(§4) Half-Maximal Degradation Concentration value (the drug concentration required for degrading proteins by 50%, abbreviated as DC50) reads method: comparing the grayscale values of Western blot bands from drug-treated samples with those from blank DMSO-treated controls, and identifying the drug concentration range at which the grayscale value is half that of the DMSO-treated control bands.
(§5) DC50 values can be calculated using ImageJ software to measure grayscale values of Western blot bands from drug-treated samples. The concentration-response curve is fitted to estimate the drug concentration corresponding to half the grayscale value.
(§6) Target protein remaining (%) refers to the percentage of target protein remaining in hPBMC cells after treatment with protein degrader compounds.
(§7) Calculation method for target protein remaining (%): Use ImageJ software to measure grayscale values of Western blot bands from drug (protein degrader)-treated samples. The grayscale value of drug-treated bands is divided by that of internal control protein bands, and the resulting quotient is normalized to obtain the relative percentage of remaining target protein after protein degrader treatment.
(§8) Target protein degradation rate (%) = 100% - target protein remaining (%).

[2] = target: T2, CDK6 (Homo sapiens, UniProt Q00534); assay: Western blot degradation of CDK6 (MDA-MB-231 Cell); type: cell-based; settings: Table D3
T2 construct: evaluate the effects of the compounds of the present disclosure on the expression of target proteins in cells; endogenous in cells; host or cells: MDA-MB-231
T2 sequence (Q00534 whole entry): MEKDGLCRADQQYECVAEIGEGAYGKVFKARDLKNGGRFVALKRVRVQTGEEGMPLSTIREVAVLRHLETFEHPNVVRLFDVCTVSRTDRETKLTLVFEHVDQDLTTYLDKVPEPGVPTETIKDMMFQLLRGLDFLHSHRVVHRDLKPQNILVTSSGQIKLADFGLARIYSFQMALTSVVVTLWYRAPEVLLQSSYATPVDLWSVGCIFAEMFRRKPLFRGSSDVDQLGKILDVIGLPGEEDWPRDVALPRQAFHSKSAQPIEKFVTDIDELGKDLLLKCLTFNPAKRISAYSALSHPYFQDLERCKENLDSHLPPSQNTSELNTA
Experimental: as §1, §2, §3, §4, §5, §6, §7, §8

[3] = tested on: H2228; assay: CCK-8 proliferation, NCI-H2228 (H2228); type: cell-based; settings: Homo sapiens, NCI-H2228; CCK-8; 96 hours; read-out: Inhibitory activity (IC50) on tumor cell proliferation, H2228
Summary of the method: (§9)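 Tumor cells were cultured at 37°C with 5% CO2, seeded, and after 24h treated with compounds at 10 concentrations starting at 10µM (5-fold serial dilutions).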

[4] = tested on: PC-9; assay: CCK-8 proliferation, PC-9; type: cell-based, Human; settings: Homo sapiens, PC-9; CCK-8; 96 hours; read-out: Inhibitory activity (IC50) on tumor cell proliferation, PC-9
Experimental: (§10) The tumor cells used herein were cultured in a cell culture medium listed in table A1 at 37°C in an incubator with 5% CO2. Prior to experimentation, all cell lines used were correctly identified by STR profiling, and tested negative for mycoplasma contamination using a mycoplasma detection kit through routine screenings. Table A1. Tumor cells and cell culture medium used in the present disclosure
(§11) IC50 values of the compounds of the present disclosure (including the compounds in Table 1, and compounds of examples) were measured using the Meilun Cell Counting Kit-8 kit from Dalian Meilun Biotech Co., Ltd. Assay details are as follows: tumor cells were seeded in a 96-well plate at a density listed in Table A2. After 24h, 100 µL of the inoculated cells were treated with 0.5µL of the compounds of the present disclosure (including the compounds in Tables 1 and 2, and compounds of examples) at 10 different successively decreasing concentrations (starting at the highest concentration of 10µM; 5-fold serial dilutions). After the cells were treated with the compounds of the present disclosure for a period of time, the cell viability detection reagent was added to the culture medium for cell viability assessment according to the instructions provided with the CCK-8 kit. […] The growth inhibition of the compounds of the present disclosure on cells was plotted by Prism Graphpad software, and the IC50 values of the compounds of the present disclosure were calculated therefrom. […] Seeding protocol and treatment time for tumor cells

[5] = tested on: H1975; assay: CCK-8 proliferation, NCI-H1975 (H1975); type: cell-based, Human; settings: Homo sapiens, NCI-H1975; CCK-8; 96 hours; read-out: Inhibitory activity (IC50) on tumor cell proliferation, H1975
Summary of the method: as §9

[6] = tested on: MV-4-11; assay: CCK-8 proliferation, MV-4-11; type: cell-based, Human; settings: Homo sapiens, MV4-11; CCK-8; 72 or 96 hours; read-out: Inhibitory activity (IC50) on tumor cell proliferation, MV-4-11
Experimental: as §10, §11

[7] = tested on: CCRF-CEM; assay: CCK-8 proliferation, CCRF-CEM; type: cell-based, Human; settings: Homo sapiens, CCRF-CEM; CCK-8; 96 hours; read-out: Inhibitory activity (IC50) on tumor cell proliferation, CCRF-CEM
Experimental: as §10, §11

T1 sequence (P11802 whole entry): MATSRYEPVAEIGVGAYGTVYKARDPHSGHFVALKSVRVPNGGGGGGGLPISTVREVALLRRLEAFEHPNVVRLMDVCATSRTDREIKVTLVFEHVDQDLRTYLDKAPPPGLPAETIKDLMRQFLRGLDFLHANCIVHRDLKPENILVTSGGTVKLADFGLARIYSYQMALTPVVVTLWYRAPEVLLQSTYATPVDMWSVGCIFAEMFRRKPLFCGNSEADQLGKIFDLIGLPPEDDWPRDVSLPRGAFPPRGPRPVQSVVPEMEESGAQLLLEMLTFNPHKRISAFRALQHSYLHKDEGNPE

| Compound | IC50 [3] | IC50 [4] | IC50 [5] | Degradation of substrate protein CDK4 (substrate protein remaining %) [1] | Degradation of substrate protein CDK6 (substrate protein remaining %) [2] | other results |
| --- | --- | --- | --- | --- | --- | --- |
| CN(C)C(=O)c1cc2cnc(Nc3ccc(N4CCN(Cc5cnc(N6CCC(=O)NC6=O)cn5)CC4)cn3)nc2n1C1CCCC1 [GT-07831, 7-cyclopentyl-2-((5-(4-((5-(2,4-dioxotetrahydropyrimidin-1(2H)-yl)pyrazin-2-yl)methyl)piperazin-1-yl)pyridin-2-yl)amino)-N,N-dimethyl-7H-pyrrolo[2,3-d]pyrimidine-6-carboxamide] | – | – | – | A (A is defined as 0% ≤ substrate protein remaining % ≤ 80%) | A (A is defined as 0% ≤ substrate protein remaining % ≤ 80%) | – |
| CC(=O)c1c(C)c2cnc(Nc3ccc(N4CCN(Cc5cnc(N6CCC(=O)NC6=O)cn5)CC4)cn3)nc2n(C2CCCC2)c1=O [GT-07827, 1-(5-((4-(6-((6-acetyl-8-cyclopentyl-5-methyl-7-oxo-7,8-dihydropyrido[2,3-d]pyrimidin-2-yl)amino)pyridin-3-yl)piperazin-1-yl)methyl)pyrazin-2-yl)dihydropyrimidine-2,4(1H,3H)-dione] | – | – | – | A (A is defined as 0% ≤ substrate protein remaining % ≤ 80%) | A (A is defined as 0% ≤ substrate protein remaining % ≤ 80%) | – |
| Nc1nc(Nc2ccc(S(=O)(=O)N3CCN(Cc4ccc(N5CCC(=O)NC5=O)nc4)CC3)cc2)nn1C(=O)c1c(F)cccc1F [GT-06754, 1-(5-((4-((4-((5-amino-1-(2,6-difluorobenzoyl)-1H-1,2,4-triazol-3-yl)amino)phenyl)sulfonyl)piperazin-1-yl)methyl)pyridin-2-yl)dihydropyrimidine-2,4(1H,3H)-dione] | – | – | – | – | – | IC50 [6]: 0.5 to 1 µM; IC50 [7]: 0.5 to 1 µM |
| CN(C)C(=O)c1cc2cnc(Nc3ccc(N4CCN(Cc5ccc(N6CCC(=O)NC6=O)cc5)CC4)cn3)nc2n1C1CCCC1 [GT-06340, 7-cyclopentyl-2-((5-(4-(4-(2,4-dioxotetrahydropyrimidin-1(2H)-yl)benzyl)piperazin-1-yl)pyridin-2-yl)amino)-N,N-dimethyl-7H-pyrrolo[2,3-d]pyrimidine-6-carboxamide] | – | – | – | A (A is defined as 0% ≤ substrate protein remaining % ≤ 80%) | A (A is defined as 0% ≤ substrate protein remaining % ≤ 80%) | – |
| CC(=O)c1c(C)c2cnc(Nc3ccc(N4CCN(Cc5cc(N6CCC(=O)NC6=O)ncc5F)CC4)cn3)nc2n(C2CCCC2)c1=O [GT-07480, 1-(4-((4-(6-((6-acetyl-8-cyclopentyl-5-methyl-7-oxo-7,8-dihydropyrido[2,3-d]pyrimidin-2-yl)amino)pyridin-3-yl)piperazin-1-yl)methyl)-5-fluoropyridin-2-yl)dihydropyrimidine-2,4(1H,3H)-dione] | – | – | – | A (A is defined as 0% ≤ substrate protein remaining % ≤ 80%) | A (A is defined as 0% ≤ substrate protein remaining % ≤ 80%) | – |
| CC(=O)c1c(C)c2cnc(Nc3ccc(N4CCN(Cc5cc(N6CCC(=O)NC6=O)cnc5F)CC4)cn3)nc2n(C2CCCC2)c1=O [GT-07832, 1-(5-((4-(6-((6-acetyl-8-cyclopentyl-5-methyl-7-oxo-7,8-dihydropyrido[2,3-d]pyrimidin-2-yl)amino)pyridin-3-yl)piperazin-1-yl)methyl)-6-fluoropyridin-3-yl)dihydropyrimidine-2,4(1H,3H)-dione] | – | – | – | A (A is defined as 0% ≤ substrate protein remaining % ≤ 80%) | A (A is defined as 0% ≤ substrate protein remaining % ≤ 80%) | – |
| CC(=O)c1c(C)c2cnc(Nc3ccc(N4CCN(Cc5ccc(N6CCC(=O)NC6=O)nc5)CC4)cn3)nc2n(C2CCCC2)c1=O [GT-06579, 1-(5-((4-(6-((6-acetyl-8-cyclopentyl-5-methyl-7-oxo-7,8-dihydropyrido[2,3-d]pyrimidin-2-yl)amino)pyridin-3-yl)piperazin-1-yl)methyl)pyridin-2-yl)dihydropyrimidine-2,4(1H,3H)-dione] | – | – | – | B (B is defined as substrate protein remaining % > 80%) | A (A is defined as 0% ≤ substrate protein remaining % ≤ 80%) | – |

Now from value to compound, other results behind:

| IC50 [3] | IC50 [4] | IC50 [5] | Compound | Degradation of substrate protein CDK4 (substrate protein remaining %) [1] | Degradation of substrate protein CDK6 (substrate protein remaining %) [2] | other results |
| --- | --- | --- | --- | --- | --- | --- |
| 0.1 to 0.5 µM | 0.1 to 0.5 µM | 0.5 to 1 µM | NC(=O)c1ncc(N2CCCCC2)nc1Nc1ccc(C2CCN(Cc3ccc(N4CCC(=O)NC4=O)cc3)CC2)cc1 [GT-04789, 3-((4-(1-(4-(2,4-dioxotetrahydropyrimidin-1(2H)-yl)benzyl)piperidin-4-yl)phenyl)amino)-5-(piperidin-1-yl)pyrazine-2-carboxamide] | – | – | – |
| 0.1 to 0.5 µM | 0.5 to 1 µM | 0.5 to 1 µM | NC(=O)c1ncc(N2CCCCC2)nc1Nc1ccc(C2CCN(Cc3ccc(C4CCC(=O)NC4=O)c(F)c3)CC2)cc1 (stereo not shown) [GT-04786, 3-((4-(1-(4-(2,6-dioxopiperidin-3-yl)-3-fluorobenzyl)piperidin-4-yl)phenyl)amino)-5-(piperidin-1-yl)pyrazine-2-carboxamide] | – | – | – |
| 0.5 to 1 µM | 0.5 to 1 µM | – | CN1CCN([C@@H]2CCCN(c3cnc(C(N)=O)c(Nc4ccc(C5CCN(Cc6ccc(C7CCC(=O)NC7=O)c(F)c6)CC5)cc4)n3)C2)C1=O (stereo partly drawn) [GT-04799, 3-((4-(1-(4-(2,6-dioxopiperidin-3-yl)-3-fluorobenzyl)piperidin-4-yl)phenyl)amino)-5-((R)-3-(3-methyl-2-oxoimidazolidin-1-yl)piperidin-1-yl)pyrazine-2-carboxamide] | – | – | – |
| 0.5 to 1 µM | 0.1 to 0.5 µM | 0.5 to 1 µM | CN1CCN([C@@H]2CCCN(c3cnc(C(N)=O)c(Nc4ccc(C5CCN(Cc6ccc(C7CCC(=O)NC7=O)cc6)CC5)cc4)n3)C2)C1=O (stereo partly drawn) [GT-04798, 3-((4-(1-(4-(2,6-dioxopiperidin-3-yl)benzyl)piperidin-4-yl)phenyl)amino)-5-((R)-3-(3-methyl-2-oxoimidazolidin-1-yl)piperidin-1-yl)pyrazine-2-carboxamide] | – | – | – |
| 0.1 to 0.5 µM | 0.1 to 0.5 µM | 0.5 to 1 µM | CN1CCN([C@@H]2CCCN(c3cnc(C(N)=O)c(Nc4ccc(C5CCN(Cc6ccc(N7CCC(=O)NC7=O)c(F)c6)CC5)cc4)n3)C2)C1=O [GT-04801, (R)-3-((4-(1-(4-(2,4-dioxotetrahydropyrimidin-1(2H)-yl)-3-fluorobenzyl)piperidin-4-yl)phenyl)amino)-5-(3-(3-methyl-2-oxoimidazolidin-1-yl)piperidin-1-yl)pyrazine-2-carboxamide] | – | – | – |
| 0.1 to 0.5 µM | 0.1 to 0.5 µM | 0.5 to 1 µM | NC(=O)c1ncc(N2CCCCC2)nc1Nc1ccc(C2CCN(Cc3ccc(N4CCC(=O)NC4=O)c(F)c3)CC2)cc1 [GT-04788, 3-((4-(1-(4-(2,4-dioxotetrahydropyrimidin-1(2H)-yl)-3-fluorobenzyl)piperidin-4-yl)phenyl)amino)-5-(piperidin-1-yl)pyrazine-2-carboxamide] | – | – | – |
